Measured values from ChEMBL document CHEMBL1134634, “Rapid enantiomeric quantification of an antiviral nucleoside agent (D,L-FMAU, 2'-fluoro-5-methyl-beta,D,L-arabinofurano-syluracil) by mass spectrometry” (J Med Chem, 2001).

System: Hepatitis B virus
Test: Effective concentration against hepatitis B virus
Format: functional, organism-based

EC50: 130 nM
Compound: Cc1cn([C@@H]2O[C@H](CO)[C@@H](O)[C@@H]2F)c(=O)[nH]c1=O [5-METHYL-2'-FLUOROARAURACIL]
